Assay results published in US11773140B2, “Gram-negative lysin-antimicrobial peptide (AMP) polypeptide constructs, lysins, isolated polynucleotides encoding same and uses thereof in human serum” (priority 2018, dated 2023).
Like-named read-outs stand apart in the source and are kept apart here.

Key:
Type in all cases: cell-based, Pseudomonas aeruginosa
[1] = test system: carbapenem-resistant P. aeruginosa isolate PA24
Experimental: (§1) Such resensitization may be determined by combining the present lysins or lysin-AMP polypeptide constructs with an antibiotic in a checkerboard assay as described herein. Antibiotic-resistant bacteria, such as carbapenem-resistant P. aeruginosa, are added to the lysin or lysin-AMP polypeptide construct combination. […] See Clinical and Laboratory Standards Institute (CLSI), CLSI. […] M100 Performance Standards for Antimicrobial Susceptibility Testing; 29th Edition. Clinical and Laboratory Standards Institute, Wayne, Pa.
(§2) Up to seven carbapenem-resistant isolates were assessed. […] See Clinical and Laboratory Standards Institute (CLSI), CLSI. […] M100 Performance Standards for Antimicrobial Susceptibility Testing; 29th Edition. Clinical and Laboratory Standards Institute, Wayne, Pa.

[2] = test system: carbapenem-resistant P. aeruginosa isolate PA20
Experimental: as §1, §2

[3] = test system: carbapenem-resistant isolate WC-452
Experimental: as §1, §2

[4] = test system: carbapenem-resistant P. aeruginosa isolate PA21
Experimental: as §1, §2

[5] = test system: carbapenem-resistant P. aeruginosa isolate PA19
Experimental: as §1, §2

[6] = test system: carbapenem-resistant P. aeruginosa isolate PA23
Experimental: as §1, §2

[7] = test system: carbapenem-resistant P. aeruginosa isolate PA22
Experimental: as §1, §2

Structure (SMILES)	carbapenem susceptibility category, Alone [1]	carbapenem MIC, Combination ([1]; in combination with GN121) [µg/mL]	carbapenem MIC, Combination ([1]; in combination with GN123) [µg/mL]	carbapenem susceptibility category, Combination ([1]; in combination with GN123)	carbapenem susceptibility category, Alone [2]	carbapenem MIC, Combination ([2]; in combination with GN121) [µg/mL]	carbapenem MIC, Combination ([2]; in combination with GN123) [µg/mL]	carbapenem susceptibility category, Combination ([2]; in combination with GN123)	carbapenem susceptibility category, Alone [3]	carbapenem MIC, Combination ([3]; in combination with GN123) [µg/mL]	carbapenem susceptibility category, Combination ([3]; in combination with GN123)	carbapenem susceptibility category, Alone [4]	carbapenem MIC, Combination ([4]; in combination with GN121) [µg/mL]	carbapenem MIC, Combination ([4]; in combination with GN123) [µg/mL]	carbapenem susceptibility category, Combination ([4]; in combination with GN123)	carbapenem susceptibility category, Alone [5]	carbapenem MIC, Combination ([5]; in combination with GN121) [µg/mL]	carbapenem MIC, Combination ([5]; in combination with GN123) [µg/mL]	carbapenem susceptibility category, Combination ([5]; in combination with GN123)	carbapenem susceptibility category, Alone [6]	further results
C[C@@H](O)[C@H]1C(=O)N2C(C(=O)O)=C(S[C@@H]3CN[C@H](C(=O)N(C)C)C3)[C@H](C)[C@H]12 [MEROPENEM, meropenem]	R ((R) = resistant)	1	2	S ((S) = sensitive)	R ((R) = resistant)	1	0.5	S ((S) = sensitive)	R ((R) = resistant)	1	S ((S) = sensitive)	R ((R) = resistant)	2	1	S ((S) = sensitive)	R ((R) = resistant)	1	0.5	S ((S) = sensitive)	R ((R) = resistant)	carbapenem MIC, Combination ([3]; in combination with GN121): 1 µg/mL; carbapenem MIC, Combination ([6]; in combination with GN121): 2 µg/mL; carbapenem MIC, Combination ([6]; in combination with GN123): 0.5 µg/mL; carbapenem susceptibility category, Combination ([6]; in combination with GN123): S ((S) = sensitive); carbapenem susceptibility category, Alone [7]: R ((R) = resistant); carbapenem MIC, Combination ([7]; in combination with GN121): 1 µg/mL; carbapenem MIC, Combination ([7]; in combination with GN123): 1 µg/mL; carbapenem susceptibility category, Combination ([7]; in combination with GN123): S ((S) = sensitive)
C[C@@H](O)[C@H]1C(=O)N2C(C(=O)O)=C(SCCN=CN)C[C@H]12 [imipenem]	R ((R) = resistant)	1	2	S ((S) = sensitive)	R ((R) = resistant)	0.5	1	S ((S) = sensitive)	R ((R) = resistant)	1	S ((S) = sensitive)	R ((R) = resistant)	1	0.5	S ((S) = sensitive)	R ((R) = resistant)	1	0.5	S ((S) = sensitive)	R ((R) = resistant)	carbapenem susceptibility category, Combination ([1]; in combination with GN121): S ((S) = sensitive); carbapenem susceptibility category, Combination ([2]; in combination with GN121): S ((S) = sensitive); carbapenem susceptibility category, Combination ([4]; in combination with GN121): S ((S) = sensitive); carbapenem susceptibility category, Combination ([5]; in combination with GN121): S ((S) = sensitive); MIC, Alone ([6]; agent alone (carbapenem or lysin)): 16 µg/mL; carbapenem susceptibility category, Combination ([6]; in combination with GN121): S ((S) = sensitive); carbapenem MIC, Combination ([6]; in combination with GN123): 0.25 µg/mL; carbapenem susceptibility category, Combination ([6]; in combination with GN123): S ((S) = sensitive); carbapenem susceptibility category, Alone [7]: R ((R) = resistant); carbapenem MIC, Combination ([7]; in combination with GN121): 2 µg/mL; carbapenem susceptibility category, Combination ([7]; in combination with GN121): S ((S) = sensitive); carbapenem MIC, Combination ([7]; in combination with GN123): 2 µg/mL; carbapenem susceptibility category, Combination ([7]; in combination with GN123): S ((S) = sensitive)
